Reference: ChEMBL document CHEMBL3596159, “Beyond substrate analogues: new inhibitor chemotypes for glycosyltransferases” (Medchemcomm, 2014)
≈ marks a conversion by molar mass, not a printed value.

Assays:
[1] = Inhibition of MGDG (unknown origin)
[2] = molecular target: Alpha-(1,6)-fucosyltransferase (Homo sapiens, UniProt Q9BYC5); test: Inhibition of FucT-8 in human blood platelets
[3] = Inhibition of short OGT (unknown origin); parameters: species or system Homo sapiens
[4] = molecular target: T1, 4-galactosyl-N-acetylglucosaminide 3-alpha-L-fucosyltransferase FUT5 (Homo sapiens, UniProt Q11128); test: Inhibition of FucT-5 (unknown origin)
T1 sequence (Q11128 whole entry): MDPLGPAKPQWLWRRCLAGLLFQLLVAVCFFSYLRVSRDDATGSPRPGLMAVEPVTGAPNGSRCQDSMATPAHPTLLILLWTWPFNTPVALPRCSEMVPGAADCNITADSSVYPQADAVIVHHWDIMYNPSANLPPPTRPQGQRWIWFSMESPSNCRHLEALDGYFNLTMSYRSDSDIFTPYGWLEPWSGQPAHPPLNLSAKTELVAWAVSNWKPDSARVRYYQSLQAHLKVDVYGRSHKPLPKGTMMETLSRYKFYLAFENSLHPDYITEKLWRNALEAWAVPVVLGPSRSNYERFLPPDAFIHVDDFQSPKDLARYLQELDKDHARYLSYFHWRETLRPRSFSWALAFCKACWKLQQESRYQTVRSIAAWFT

[5] = molecular target: T2, 4-galactosyl-N-acetylglucosaminide 3-alpha-L-fucosyltransferase FUT6 (Homo sapiens, UniProt P51993); test: Inhibition of FucT-6 (unknown origin)
T2 sequence (P51993 whole entry): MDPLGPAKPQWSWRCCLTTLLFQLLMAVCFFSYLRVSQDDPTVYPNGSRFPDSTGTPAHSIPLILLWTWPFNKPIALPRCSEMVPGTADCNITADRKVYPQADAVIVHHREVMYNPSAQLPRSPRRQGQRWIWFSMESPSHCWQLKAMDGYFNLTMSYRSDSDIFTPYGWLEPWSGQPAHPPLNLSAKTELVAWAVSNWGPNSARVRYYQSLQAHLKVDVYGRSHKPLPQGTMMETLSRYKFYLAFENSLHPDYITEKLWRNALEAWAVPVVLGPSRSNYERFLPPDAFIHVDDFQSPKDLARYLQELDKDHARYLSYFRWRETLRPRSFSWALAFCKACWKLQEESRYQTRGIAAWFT

[6] = molecular target: T3, Beta-galactoside alpha-2,6-sialyltransferase 1 (Homo sapiens, UniProt P15907); test: Inhibition of ST6N (unknown origin)
T3 sequence (P15907 whole entry): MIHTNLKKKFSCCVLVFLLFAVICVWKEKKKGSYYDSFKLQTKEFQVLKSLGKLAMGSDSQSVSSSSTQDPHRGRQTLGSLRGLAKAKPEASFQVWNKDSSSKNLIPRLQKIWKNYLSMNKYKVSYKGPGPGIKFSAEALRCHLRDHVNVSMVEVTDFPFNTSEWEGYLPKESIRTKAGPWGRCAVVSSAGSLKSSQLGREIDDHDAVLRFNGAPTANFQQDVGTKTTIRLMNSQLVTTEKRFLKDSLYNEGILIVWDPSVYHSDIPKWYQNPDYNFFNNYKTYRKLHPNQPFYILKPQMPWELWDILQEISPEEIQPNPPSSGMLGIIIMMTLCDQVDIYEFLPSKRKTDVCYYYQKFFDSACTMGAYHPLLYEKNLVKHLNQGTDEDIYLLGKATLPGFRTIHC

[7] = molecular target: T4, CMP-N-acetylneuraminate-beta-1,4-galactoside alpha-2,3-sialyltransferase (Homo sapiens, UniProt Q11203); test: Inhibition of ST3N (unknown origin)
T4 sequence (Q11203 whole entry): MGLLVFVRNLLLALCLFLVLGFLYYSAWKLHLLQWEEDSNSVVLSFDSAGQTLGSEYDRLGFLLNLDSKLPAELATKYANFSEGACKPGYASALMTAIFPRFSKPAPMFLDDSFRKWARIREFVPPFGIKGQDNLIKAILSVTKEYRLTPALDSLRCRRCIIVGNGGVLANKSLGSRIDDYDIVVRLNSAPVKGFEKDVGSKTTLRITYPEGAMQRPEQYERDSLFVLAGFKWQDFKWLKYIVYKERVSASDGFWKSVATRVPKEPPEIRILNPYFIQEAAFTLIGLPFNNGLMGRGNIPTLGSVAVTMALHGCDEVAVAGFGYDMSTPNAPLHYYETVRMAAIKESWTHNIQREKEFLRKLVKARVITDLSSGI

[8] = molecular target: T5, CMP-N-acetylneuraminate-beta-galactosamide-alpha-2,3-sialyltransferase 1 (Homo sapiens, UniProt Q11201); test: Inhibition of ST3Gal 1 (unknown origin)
T5 sequence (Q11201 whole entry): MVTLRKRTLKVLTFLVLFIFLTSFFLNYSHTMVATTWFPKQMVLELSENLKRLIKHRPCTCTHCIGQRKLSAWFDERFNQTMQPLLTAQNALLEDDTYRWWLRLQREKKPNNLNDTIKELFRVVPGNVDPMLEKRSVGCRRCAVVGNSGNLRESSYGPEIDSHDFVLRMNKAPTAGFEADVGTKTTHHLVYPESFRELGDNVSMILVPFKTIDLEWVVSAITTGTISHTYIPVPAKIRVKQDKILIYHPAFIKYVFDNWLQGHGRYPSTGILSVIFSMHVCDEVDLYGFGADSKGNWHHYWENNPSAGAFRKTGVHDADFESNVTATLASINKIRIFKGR

[9] = molecular target: Ceramide glucosyltransferase (Homo sapiens, UniProt Q16739); test: Inhibition of glucosylceramide synthase (unknown origin)
[10] = test system: Candida albicans; test: Antifungal activity against Candida albicans; type: functional
[11] = Inhibition of candida albicans beta-(1,3)-glucan synthase assessed as decrease in transfer of radiolabelled glucose from UDP-[3H]-glucose onto acceptor
[12] = molecular target: T5, CMP-N-acetylneuraminate-beta-galactosamide-alpha-2,3-sialyltransferase 1; test: Inhibition of ST3Gal 1 (unknown origin) expressed in High Five cells; parameters: species or system BTI-TN-5B1-4
[13] = molecular target: UDP-N-acetylglucosamine--N-acetylmuramyl-(pentapeptide) pyrophosphoryl-undecaprenol N-acetylglucosamine transferase (Escherichia coli (strain K12), UniProt P17443); test: Inhibition of Escherichia coli MurG
[14] = molecular target: T6, Phospho-N-acetylmuramoyl-pentapeptide-transferase/UDP-N-acetylglucosamine--N-acetylmuramyl-(pentapeptide) pyrophosphoryl-undecaprenol N-acetylglucosamine transf (Escherichia coli K-12, UniProt P0A6W3+P17443); test: Inhibition of Escherichia coli MraY/MurG; type: protein assay
T6 sequence (P0A6W3 whole entry): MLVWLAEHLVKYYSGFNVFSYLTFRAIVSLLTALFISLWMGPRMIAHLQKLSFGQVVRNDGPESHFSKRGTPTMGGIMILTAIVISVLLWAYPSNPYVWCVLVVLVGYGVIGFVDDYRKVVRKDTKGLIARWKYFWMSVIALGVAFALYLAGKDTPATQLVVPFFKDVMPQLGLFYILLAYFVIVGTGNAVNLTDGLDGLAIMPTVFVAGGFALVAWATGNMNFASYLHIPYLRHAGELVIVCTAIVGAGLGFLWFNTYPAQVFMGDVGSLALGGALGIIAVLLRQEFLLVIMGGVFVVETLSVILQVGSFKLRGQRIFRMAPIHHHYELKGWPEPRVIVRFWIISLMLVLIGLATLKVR
T6 sequence (P17443 whole entry): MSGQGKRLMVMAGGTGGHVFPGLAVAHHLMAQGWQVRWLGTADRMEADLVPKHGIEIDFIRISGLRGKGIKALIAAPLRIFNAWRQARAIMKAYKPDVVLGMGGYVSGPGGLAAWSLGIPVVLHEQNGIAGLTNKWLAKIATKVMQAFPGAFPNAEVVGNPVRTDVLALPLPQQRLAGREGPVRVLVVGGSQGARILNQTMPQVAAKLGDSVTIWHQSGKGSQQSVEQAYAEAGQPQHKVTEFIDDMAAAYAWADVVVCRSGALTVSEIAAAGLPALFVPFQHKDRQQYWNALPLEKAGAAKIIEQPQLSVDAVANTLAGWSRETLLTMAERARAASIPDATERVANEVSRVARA

[15] = Inhibition of human beta-1,4-GalT
[16] = molecular target: T7, Alpha-(1,3)-fucosyltransferase 7 (Homo sapiens, UniProt Q11130); test: Inhibition of FucT-7 (unknown origin)
T7 sequence (Q11130 whole entry): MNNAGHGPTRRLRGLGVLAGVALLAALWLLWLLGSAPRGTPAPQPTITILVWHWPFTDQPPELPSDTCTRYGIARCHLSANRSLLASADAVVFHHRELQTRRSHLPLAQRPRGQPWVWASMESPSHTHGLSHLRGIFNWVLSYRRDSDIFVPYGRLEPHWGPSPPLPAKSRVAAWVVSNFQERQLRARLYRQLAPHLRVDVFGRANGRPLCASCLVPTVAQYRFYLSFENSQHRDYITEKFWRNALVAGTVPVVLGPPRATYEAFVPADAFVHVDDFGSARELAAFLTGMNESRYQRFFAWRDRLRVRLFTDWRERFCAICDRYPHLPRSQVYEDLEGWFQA

[17] = molecular target: Beta-galactoside alpha-2,6-sialyltransferase 1 (Rattus norvegicus, UniProt P13721); test: Inhibition of rat ST6Gal1
[18] = molecular target: T3, Beta-galactoside alpha-2,6-sialyltransferase 1; test: Inhibition of human ST6Gal1
[19] = Inhibition of beta-1,4-GalT (unknown origin); parameters: species or system Homo sapiens
[20] = molecular target: T8, UDP-N-acetylglucosamine--N-acetylmuramyl-(pentapeptide) pyrophosphoryl-undecaprenol N-acetylglucosamine transferase (Escherichia coli (strain K12)) (UniProt P17443); test: Inhibition of Escherichia coli MurG at 2.5 microg/ml
T8 sequence (whole entry): T6 sequence (P17443 whole entry)

[21] = molecular target: UDP-N-acetylglucosamine--peptide N-acetylglucosaminyltransferase 110 kDa subunit (Homo sapiens, UniProt O15294); test: Inhibition of nucleocytoplasmic OGT (unknown origin)
[22] = molecular target: Alpha-(1,3)-fucosyltransferase 4 (Homo sapiens, UniProt P22083); test: Inhibition of FucT-4 (unknown origin)
Chain of Alpha-(1,3)-fucosyltransferase 4 (P22083 whole entry): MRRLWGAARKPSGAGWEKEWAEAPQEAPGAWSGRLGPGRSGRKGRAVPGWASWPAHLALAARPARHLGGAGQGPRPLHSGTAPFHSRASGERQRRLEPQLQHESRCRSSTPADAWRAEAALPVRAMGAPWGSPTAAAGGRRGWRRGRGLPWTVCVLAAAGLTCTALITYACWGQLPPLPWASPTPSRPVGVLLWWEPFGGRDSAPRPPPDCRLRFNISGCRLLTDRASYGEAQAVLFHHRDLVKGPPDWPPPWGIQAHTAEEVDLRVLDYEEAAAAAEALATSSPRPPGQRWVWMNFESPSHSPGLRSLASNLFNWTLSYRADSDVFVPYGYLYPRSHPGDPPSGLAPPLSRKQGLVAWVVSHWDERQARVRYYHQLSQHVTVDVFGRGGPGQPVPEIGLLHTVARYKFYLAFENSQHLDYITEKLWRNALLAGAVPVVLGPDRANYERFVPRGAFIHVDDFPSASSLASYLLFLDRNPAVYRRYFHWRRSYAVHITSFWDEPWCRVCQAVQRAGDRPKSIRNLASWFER

Chain of UDP-N-acetylglucosamine--peptide N-acetylglucosaminyltransferase 110 kDa subunit (O15294 whole entry): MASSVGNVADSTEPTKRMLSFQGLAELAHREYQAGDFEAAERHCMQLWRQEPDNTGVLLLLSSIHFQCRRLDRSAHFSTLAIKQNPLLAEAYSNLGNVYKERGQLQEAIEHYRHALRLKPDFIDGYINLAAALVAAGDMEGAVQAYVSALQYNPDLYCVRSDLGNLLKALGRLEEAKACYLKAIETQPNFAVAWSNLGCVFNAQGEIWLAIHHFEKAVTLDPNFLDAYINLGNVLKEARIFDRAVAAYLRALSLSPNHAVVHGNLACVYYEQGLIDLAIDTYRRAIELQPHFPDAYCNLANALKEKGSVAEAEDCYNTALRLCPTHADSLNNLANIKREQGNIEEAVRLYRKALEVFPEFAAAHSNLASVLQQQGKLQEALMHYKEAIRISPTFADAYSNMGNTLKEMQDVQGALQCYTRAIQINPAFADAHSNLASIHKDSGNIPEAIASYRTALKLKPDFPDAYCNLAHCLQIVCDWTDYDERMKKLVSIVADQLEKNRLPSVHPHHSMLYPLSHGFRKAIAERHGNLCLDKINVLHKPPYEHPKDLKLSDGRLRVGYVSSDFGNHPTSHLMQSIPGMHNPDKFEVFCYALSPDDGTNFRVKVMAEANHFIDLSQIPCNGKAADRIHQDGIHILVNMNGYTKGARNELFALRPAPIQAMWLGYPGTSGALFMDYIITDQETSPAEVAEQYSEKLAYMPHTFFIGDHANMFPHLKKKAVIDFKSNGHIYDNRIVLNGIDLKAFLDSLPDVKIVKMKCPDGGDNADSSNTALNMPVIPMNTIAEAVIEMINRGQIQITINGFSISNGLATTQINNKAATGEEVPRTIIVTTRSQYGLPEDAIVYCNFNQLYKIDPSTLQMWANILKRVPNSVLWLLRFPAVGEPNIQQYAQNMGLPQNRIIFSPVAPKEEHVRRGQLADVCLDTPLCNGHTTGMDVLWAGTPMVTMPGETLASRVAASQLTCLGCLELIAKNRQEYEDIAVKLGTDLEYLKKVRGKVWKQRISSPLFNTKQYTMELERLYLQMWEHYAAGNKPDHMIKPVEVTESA
Chain of Alpha-(1,6)-fucosyltransferase (Q9BYC5 whole entry): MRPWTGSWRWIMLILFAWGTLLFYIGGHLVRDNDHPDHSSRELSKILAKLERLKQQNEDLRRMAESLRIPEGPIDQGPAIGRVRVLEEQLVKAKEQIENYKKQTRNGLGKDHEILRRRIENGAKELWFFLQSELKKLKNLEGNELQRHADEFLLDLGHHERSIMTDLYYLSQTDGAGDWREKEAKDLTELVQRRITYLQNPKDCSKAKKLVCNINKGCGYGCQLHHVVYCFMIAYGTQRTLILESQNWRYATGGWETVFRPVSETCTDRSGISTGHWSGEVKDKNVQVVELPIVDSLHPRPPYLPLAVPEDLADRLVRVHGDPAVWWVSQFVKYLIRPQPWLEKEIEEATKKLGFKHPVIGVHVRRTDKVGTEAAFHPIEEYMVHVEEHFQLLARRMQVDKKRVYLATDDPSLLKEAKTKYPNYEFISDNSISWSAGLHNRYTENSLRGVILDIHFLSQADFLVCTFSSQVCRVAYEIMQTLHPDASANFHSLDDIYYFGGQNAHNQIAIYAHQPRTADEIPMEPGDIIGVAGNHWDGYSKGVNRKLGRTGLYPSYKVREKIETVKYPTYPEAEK
Chain of Ceramide glucosyltransferase (Q16739 whole entry): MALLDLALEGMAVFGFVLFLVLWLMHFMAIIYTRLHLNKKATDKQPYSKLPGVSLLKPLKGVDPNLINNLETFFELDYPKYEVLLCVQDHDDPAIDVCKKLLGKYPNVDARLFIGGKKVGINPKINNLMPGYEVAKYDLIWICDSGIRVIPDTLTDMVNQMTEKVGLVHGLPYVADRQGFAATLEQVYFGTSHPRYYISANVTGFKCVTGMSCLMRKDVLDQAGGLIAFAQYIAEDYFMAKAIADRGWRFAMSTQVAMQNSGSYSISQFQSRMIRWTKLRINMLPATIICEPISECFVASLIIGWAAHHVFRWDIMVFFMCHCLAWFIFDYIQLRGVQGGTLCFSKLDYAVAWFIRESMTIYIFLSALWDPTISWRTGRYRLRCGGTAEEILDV
Chain of Beta-galactoside alpha-2,6-sialyltransferase 1 (Rattus norvegicus, UniProt P13721) (P13721 whole entry): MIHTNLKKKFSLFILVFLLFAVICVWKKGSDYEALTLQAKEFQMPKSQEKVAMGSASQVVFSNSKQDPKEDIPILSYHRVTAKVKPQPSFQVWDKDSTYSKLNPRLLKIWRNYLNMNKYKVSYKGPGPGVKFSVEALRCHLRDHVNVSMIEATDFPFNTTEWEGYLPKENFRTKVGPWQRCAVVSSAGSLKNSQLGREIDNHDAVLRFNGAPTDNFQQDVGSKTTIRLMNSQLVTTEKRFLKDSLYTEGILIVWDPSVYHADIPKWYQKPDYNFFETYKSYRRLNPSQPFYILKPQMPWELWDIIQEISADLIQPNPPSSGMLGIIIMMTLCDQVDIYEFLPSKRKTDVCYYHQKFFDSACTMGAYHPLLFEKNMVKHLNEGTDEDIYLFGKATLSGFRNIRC

## O=C(OC[C@H](Cc1ccccc1)N(Cc1ccccc1)Cc1ccccc1)N1CCC(n2c(=O)[nH]c3ccccc32)CC1
[1]
  IC50: 12 µM

## Nc1c(S(=O)(=O)O)cc(Nc2ccc(Nc3nc(Cl)nc(Nc4ccccc4S(=O)(=O)O)n3)c(S(=O)(=O)O)c2)c2c1C(=O)c1ccccc1C2=O [CIBACRON BLUE 3GA]
[2]
  Ki: 11 µM

## O=C(Oc1ccccc1)n1c(=O)oc2ccc(Cl)cc21
[3]
  IC50: 27 µM

## C[C@@H]1CC[C@H]2C(C)(C)[C@H](O)CC[C@]2(C)[C@@]12Cc1c(O)cc3c(c1O2)COC3=O
[4]
  IC50: > 200 µM
[5]
  IC50: > 200 µM
[6]
  IC50: 8 µM
[7]
  IC50: 50 µM
[8]
  IC50: 30.2 µM

## CCCCCCCCCC(=O)N[C@H](CN1CCCC1)[C@H](O)c1ccccc1
[9]
  IC50: 4 µM

## CC(C)[C@@H](C)/C=C/[C@@H](C)[C@H]1CCC2=C3[C@@H](O)[C@@H]4O[C@@]45C[C@@H](OC(=O)[C@@H](N)[C@@H](OS(=O)(=O)O)C(C)C)CC[C@]5(C)[C@H]3CC[C@@]21C(=O)O
[10]
  MIC: 0.2 µg/mL (≈ 0.299 µM)
[11]
  IC50: 3 µM

## C[C@@H]1CC[C@H]2C(C)(C)[C@H](O)[C@H](O)C[C@]2(C)[C@@]12Cc1c(O)cc3c(c1O2)COC3=O
[4]
  IC50: > 200 µM
[5]
  IC50: > 200 µM
[6]
  IC50: 18.5 µM
[7]
  IC50: 111 µM
[8]
  IC50: 168 µM

## H-GNWWWW-OH
[12]
  Ki: 1.1 µM

## CN[C@H](CC(C)C)C(=O)N[C@H]1C(=O)N[C@@H](CC(N)=O)C(=O)N[C@H]2C(=O)N[C@H]3C(=O)N[C@H](C(=O)N[C@H](C(=O)O)c4cc(O)cc(O)c4-c4cc3ccc4O)[C@H](O)c3ccc(c(Cl)c3)Oc3cc2cc(c3O[C@@H]2O[C@H](CO)[C@@H](O)[C@H](O)[C@H]2O[C@H]2C[C@](C)(N)[C@H](O)[C@H](C)O2)Oc2ccc(cc2Cl)[C@H]1O [VANCOMYCIN]
[13]
  IC50: 10 µM
[14]
  IC50: 9 µM

## CC(=O)N[C@H]1[C@H](O[C@H]2[C@@H](O)[C@@H](CO)O[C@@H](OCc3ccc4ccccc4c3)[C@@H]2O)O[C@H](CO)C[C@@H]1O
[15]
  Ki: 192 µM

## CC(C)CCCCCCCCCCCCc1cc(OS(=O)(=O)O)cc(OS(=O)(=O)O)c1
[16]
  IC50: 4.8 µM

## CCCCCCCCO[C@H]1CN(CCCCCCCC)[C@H](CO)[C@@H](O)[C@@H]1O
[9]
  IC50: 164 µM

## O=c1c(O)c(-c2ccc(O)c(O)c2)oc2ccccc12
[17]
  IC50: 1.9 µM
[18]
  IC50: 7.5 µM

## O=C(NC[C@H]1O[C@@H](n2ccc(=O)[nH]c2=O)[C@H](O)[C@@H]1O)c1cccc(CO[C@@H]2O[C@H](CO)[C@H](O)[C@H](O)[C@H]2O)n1
[19]
  IC50: 152 µM

## CCCCCCCCCCCCCCCc1cc(OS(=O)(=O)O)cc(OS(=O)(=O)O)c1
[16]
  IC50: 4.3 µM

## CC1CCN(CN2C(=O)/C(=C\c3ccc(C(C)(C)C)cc3)SC2=S)CC1
[13]
  Ki: 1.3 µM
[20]
  inhibition: 88%

## O=C(O)C1CC(=O)N(CC23CC4CC(CC(C4)C2)C3)/C(=N/c2ccc(Cl)cc2)S1 (centres undefined)
[3]
  IC50: 30 µM
[21]
  IC50: 53 µM

## O=S(=O)(O)c1cc(Nc2nc(Cl)nc(Nc3ccc(Nc4nc(Cl)nc(Nc5cc(S(=O)(=O)O)cc6cc(S(=O)(=O)O)c(/N=N/c7ccccc7S(=O)(=O)O)c(O)c56)n4)cc3)n2)c2c(O)c(/N=N/c3ccccc3S(=O)(=O)O)c(S(=O)(=O)O)cc2c1
[2]
  Ki: 2 µM

## CC(=O)O[C@@H]1C[C@]23C4=CC[C@@]5(C)[C@H](C(=O)O)[C@@](C)([C@H](C)C(C)C)CC[C@]5(C)[C@H]4CC[C@H]2[C@@](C)(COC3O)[C@H]1O[C@@H]1O[C@H](CO)[C@@H](O)[C@H](O)[C@H]1O (some centres undefined) [ENFUMAFUNGIN]
[10]
  MIC: 0.05 µg/mL (≈ 0.0705 µM)
[11]
  IC50: 1 µM

## C[C@@H](COC(=O)N1CCC(n2c(=O)[nH]c3ccccc32)CC1)N(Cc1ccccc1)Cc1ccccc1
[1]
  IC50: 10 µM

## N#Cc1ccc(CSc2nc(-c3cccs3)c3c(c2C(=O)O)CCCC3)cc1
[3]
  IC50: 60 µM
[21]
  IC50: 100 µM

## O=C(O[C@H]1Cc2c(O)cc(O)cc2O[C@H]1c1cc(O)c(O)c(O)c1)c1cc(O)c(O)c(O)c1
[22]
  IC50: 1.8 µM
[7]
  IC50: 2.7 µM
[16]
  IC50: 0.7 µM
